Source: patent US20190248834A1, “ENDOMORPHIN-2, TETRAPEPTIDE DERIVATIVES THEREOF, AND USES THEREOF” (priority 2016, published 2019)
No end group written: not given here.

What was measured:
adjuvant arthritis = details: intraperitoneal injection; cited from earlier work
[1] = system: sore site on the left lower gum; experiment: Example 38: analgesic effect on gum pain due to pressure from denture; type: in vivo, human
Method: […]. […] The dentures were removed and re-inserted 15 hours later. Within about 1 hour, soreness of the same area began to return and application of the above solution composition was repeated in the same way as the day before. All soreness again was alleviated within 5-10 seconds. The relief lasted again for about 7 hours.

[2] = system: rat rostral ventrolateral medulla neurons; details: in vitro; cited from earlier work
[3] = rats injected at 5-10 μg; cited from earlier work
mu receptors = mu receptors (Mus musculus, UniProt P42866); details: mouse brain; cited from earlier work
Chain of mu receptors (P42866 whole entry): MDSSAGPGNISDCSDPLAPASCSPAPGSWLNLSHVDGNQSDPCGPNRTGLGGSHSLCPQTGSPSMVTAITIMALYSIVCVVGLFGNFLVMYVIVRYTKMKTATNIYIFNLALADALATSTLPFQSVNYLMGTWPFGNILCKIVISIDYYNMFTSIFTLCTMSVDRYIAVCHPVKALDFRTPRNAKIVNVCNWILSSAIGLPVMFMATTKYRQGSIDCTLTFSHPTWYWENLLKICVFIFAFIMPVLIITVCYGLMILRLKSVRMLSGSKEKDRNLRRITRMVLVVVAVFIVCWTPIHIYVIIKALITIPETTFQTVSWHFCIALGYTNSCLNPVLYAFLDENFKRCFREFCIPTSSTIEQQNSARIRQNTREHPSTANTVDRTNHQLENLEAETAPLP

[4] = system: extruded intervertebral cervical disc, pain and paresthesia; experiment: Example 40: painful extruded intervertebral cervical disc, topical; type: in vivo, human
Text: Previous therapy undergone by the subject included epidural injections of corticosteroids.

[5] = system: pain caused by needling or pinching; experiment: Example 91: experimentally induced skin pain, intradermal and subcutaneous injection; type: in vivo, human; details: 0.1% sterile aqueous solution pH 6.2, intradermally 0.1 ml and subcutaneously 0.2 ml
[6] = system: extruded intervertebral cervical disc, pain and paresthesia; experiment: Example 40: painful extruded intervertebral cervical disc, subcutaneous injection; type: in vivo, human
Text: Previous therapy undergone by the subject included epidural injections of corticosteroids. Within the past several months, the pain had intensified, along with a substantial degree of paresthesia and numbness of the fingers of both hands. […] Relief of pain and paresthesia lasted for 1-2 days. Thereafter, the pain and paresthesia returned.
About 1 week later, pain and paresthesia were negligible, but returned within 2-3 weeks. Such injections were repeated 3 times at approximately monthly intervals with the same beneficial results. However, pain and paresthesia were not cured, and recurring within 2-3 weeks.

[7] = 0.5% (w/v) in WEP442, gauze under plastic film

Tyr-Pro-Phe-Phe-NH2 (YPFF-NH2)
effect on edema in rat paw assay (adjuvant arthritis): did not have any effect that significantly differed from the effect of the control group | duration of relief ([1]; 1% (w/v) in WEP442): about 7 hours | time to relief ([1]; 1% (w/v) in WEP442): 5 to 10 s | relief of soreness ([1]; 1% (w/v) in WEP442, applied to the sore gum area): all soreness was gone | spontaneous discharge of the medullary neurons [2]: significantly inhibited | analgesic effects [3]: exhibited analgesic effects | affinity for mu receptors (mu receptors): very high affinity | duration of relief of pain and paresthesia [4, 7]: 1 to 2 days | time to relief of symptoms [4, 7]: 8 h | relief of symptoms ([4]; 0.5% (w/v) in WEP442, saturated gauze under plastic film over cervical vertebra 7): complete relief of symptoms | effect on pain caused by needling or pinching of injected sites [5]: did not prevent pain | pain and paresthesia ([6]; 3 mg/ml sterile aqueous solution, subcutaneous, next day): diminished substantially | time to return of pain and paresthesia ([6]; 3 mg/ml subcutaneous): 2-3 weeks | pain and paresthesia ([6]; 3 mg/ml subcutaneous, repeated after 24 hours, about 1 week later): negligible
